Source: patent US20120252721A1 (priority 2011, published 2012)

Key:
in vitro = format: cell-based; conditions: human; GS4.1 cells, cellular viability
Protocol: For cytotoxicity evaluation, GS4.1 cells were treated with compounds as described above and cellular viability was monitored using the Cell Titer 96 AQeous One Solution Cell Proliferation Assay (Promega). CC50 values were determined from the % cytotoxicity versus concentration data with Tecan Magellan software as described above.

[1] = test system: 1a-luc Q30K (HCV genotype 1a replicon); assay: Luciferase replicon transient transfection assay, 1a-luc Q30K; format: cell-based, hepatitis C virus; conditions: for EC50: Hepatitis C virus, 96 h, Huh7.5 cells, 4 days
Protocol: (§1) The luciferase replicon transient transfection assay measures the ability of a test compound to inhibit the replication of a transiently-transfected HCV luciferase-bearing wild-type or mutant replicon in cured human hepatoma cells (Huh7.5). The inhibition of HCV replication was measured by quantification of luciferase protein expression. This assay has been validated using a panel of genotype 1a and 1b replicons bearing mutations known to be associated with resistance to BMS-790052. Briefly, subconfluent Huh7.5 cells were electroporated with 10 μg of wild-type or mutant luciferase-bearing HCV replicon RNA. The cells were then seeded in 96-well opaque white plates at 3×10^4 cells/well in 150 μL/well and incubated for 4 hrs at 37° C./5% CO2. Ten 1:5 serial dilutions of each test compound were made in media (DMEM containing glucose, L-glutamine and sodium pyruvate, 10% fetal bovine serum, 100 IU/mL penicillin, 100 μg/mL streptomycin, 2 mM GlutaMAX, and 1×MEM non-essential amino acids (Mediatech, Inc. and Invitrogen Corp.)) at concentrations that were 4× higher than the final concentrations to be tested and 50 μL/well was added to the transfected cells. Untreated, mock-transfected cells served as a negative control of luciferase expression. The plates were incubated at 37° C./5% CO2 for 4 days whereupon the media was removed and 50 μL of ONE-glo luciferase substrate (Promega) was added to each well. The plates were agitated on a rotating platform at room temperature for 3 min and read in a Victor^3V microplate reader (Perkin-Elmer) using a 700 nm cut-off filter with a 1 sec read time. EC50 values were calculated from dose response curves from the resulting best-fit equations determined by Microsoft Excel and XLfit 4.1 software.

[2] = test system: 1a-luc L31M (HCV genotype 1a replicon); assay: Luciferase replicon transient transfection assay, 1a-luc L31M; format: cell-based, hepatitis C virus; conditions: for EC50: Hepatitis C virus, 96 h, Huh7.5 cells, 4 days
Protocol: as §1

[3] = test system: HCV genotype 1a replicon, NS4B E15G; assay: Luciferase replicon transient transfection assay, genotype 1a NS4B E15G; format: cell-based, hepatitis C virus; conditions: for EC50: Hepatitis C virus, HCV region NS4B, mutation E15G; for Ratio: NS4B E15G
Protocol: as §1
(§2) To determine the replication capacity of each mutant relative to the wild-type parental replicon, transfected cells were plated on two plates and were not treated with compound. Luciferase activity was measured at time points of 4 hrs and 4 days after plating for each replicon. Replication capacity was calculated by dividing the day 4 CPS by the 4 hour CPS for each replicon and determining the percentage present for each mutant replicon relative to wild-type replicon values. The NS3, NS4B, and NS5B mutants were prepared and tested according to the methods described herein.

[4] = test system: ZS11-luc R30E (HCV genotype 1b replicon); assay: Luciferase replicon transient transfection assay, ZS11-luc R30E; format: cell-based, hepatitis C virus; conditions: for EC50: Hepatitis C virus, 96 h, Huh7.5 cells, 4 days
Protocol: as §1

[5] = test system: ZS11-luc replicon, NS3-R155K; assay: Luciferase replicon transient transfection assay, NS3-R155K; format: cell-based, hepatitis C virus; conditions: for EC50: Hepatitis C virus
Protocol: as §1, §2

[6] = test system: ZS11-luc replicon, NS3-D168V; assay: Luciferase replicon transient transfection assay, NS3-D168V; format: cell-based, hepatitis C virus; conditions: for EC50: Hepatitis C virus
Protocol: as §1, §2

## COC(=O)N[C@H](C(=O)N1CCC[C@H]1c1ncc(-c2ccc(-c3csc4c(-c5cnc([C@@H]6CCCN6C(=O)[C@@H](NC(=O)OC)C(C)C)[nH]5)csc34)cc2)[nH]1)C(C)C [Compound A15, [(S)-1-((S)-2-{4-[4-(6-{2-[(S)-1-((S)-2-methoxycarbonylamino-3-methyl-butyryl)-pyrrolidin-2-yl]-3H-imidazol-4-yl}-thieno[3,2-b]thiophen-3-yl)-phenyl]-1H-imidazol-2-yl}-pyrrolidine-1-carbonyl)-2-methyl-propyl]-carbamic acid methyl ester]
In vitro
  CC50: 10000 to 75000 nM

## COC(=O)N[C@H](C(=O)N1CCC[C@H]1c1ncc(-c2ccc(-c3csc4c(-c5ccc6[nH]c([C@@H]7CCCN7C(=O)[C@H](NC(=O)OC)c7ccccc7)nc6c5)csc34)cc2)[nH]1)C(C)C [Compound A172, [(S)-1-((S)-2-{5-[4-(6-{(S)-2-[1-((R)-2-Methoxycarbonylamino-2-phenyl-acetyl)-pyrrolidin-2-yl]-3H-benzoimidazol-5-yl}-thieno[3,2-b]thiophen-3-yl)-phenyl]-1H-imidazol-2-yl}-pyrrolidine-1-carbonyl)-2-methyl-propyl]-carbamic acid methyl ester]
[1]
  Ratio: 317
  EC50: 1 nM
[2]
  Ratio: 378
  EC50: 2 nM
[3]
  EC50: 0.006 nM
  Ratio: 1.68
[4]
  Ratio: 1
  EC50: 0.006 nM
[5]
  EC50: 0.0023 nM
  Ratio: 1.02
[6]
  EC50: 0.0024 nM
  Ratio: 1.04

## COC(=O)N[C@H](C(=O)N1CCC[C@H]1c1nc2cc(-c3csc4c(-c5ccc(-c6cnc([C@@H]7CCCN7C(=O)[C@H](NC(=O)OC)c7ccccc7)[nH]6)cc5)csc34)ccc2[nH]1)C(C)C [Compound A169, [(S)-1-((S)-2-{6-[6-(4-{(S)-2-[1-((R)-2-methoxycarbonylamino-2-phenyl-acetyl)-pyrrolidin-2-yl]-3H-imidazol-4-yl}-phenyl)-thieno[3,2-b]thiophen-3-yl]-1H-benzoimidazol-2-yl}-pyrrolidine-1-carbonyl)-2-methyl-propyl]-carbamic acid methyl ester]
[1]
  Ratio: 310
  EC50: 0.7 nM
[2]
  Ratio: 311
  EC50: 0.7 nM
[3]
  EC50: 0.003 nM
  Ratio: 1.52
[4]
  Ratio: 1
  EC50: 0.003 nM
[5]
  EC50: 0.0017 nM
  Ratio: 1.01
[6]
  EC50: 0.0018 nM
  Ratio: 1.04

## COC(=O)N[C@H](C(=O)N1CCC[C@H]1c1ncc(-c2ccc(-c3csc4c(-c5cnc([C@@H]6CCCN6C(=O)[C@H](NC(=O)OC(C)(C)C)c6ccccc6)[nH]5)csc34)cc2)[nH]1)C(C)C [Compound A111, [(S)-1-((S)-2-{4-[4-(6-{(S)-2-[1-((R)-2-tert-butoxycarbonylamino-2-phenyl-acetyl)-pyrrolidin-2-yl]-3H-imidazol-4-yl}-thieno[3,2-b]thiophen-3-yl)-phenyl]-1H-imidazol-2-yl}-pyrrolidine-1-carbonyl)-2-methyl-propyl]-carbamic acid methyl ester]
In vitro
  CC50: > 75000 nM
